The values below are quoted from earlier work in PMC4763008, “Selective Inhibition of Bakuchicin Isolated from Psoralea corylifolia on CYP1A in Human Liver Microsomes” (Evidence-based Complementary and Alternative Medicine : eCAM, 2016).

For data set [1], the target named is T1, CYP1A (Homo sapiens, UniProt P05177).
T1 sequence (P05177 2-516): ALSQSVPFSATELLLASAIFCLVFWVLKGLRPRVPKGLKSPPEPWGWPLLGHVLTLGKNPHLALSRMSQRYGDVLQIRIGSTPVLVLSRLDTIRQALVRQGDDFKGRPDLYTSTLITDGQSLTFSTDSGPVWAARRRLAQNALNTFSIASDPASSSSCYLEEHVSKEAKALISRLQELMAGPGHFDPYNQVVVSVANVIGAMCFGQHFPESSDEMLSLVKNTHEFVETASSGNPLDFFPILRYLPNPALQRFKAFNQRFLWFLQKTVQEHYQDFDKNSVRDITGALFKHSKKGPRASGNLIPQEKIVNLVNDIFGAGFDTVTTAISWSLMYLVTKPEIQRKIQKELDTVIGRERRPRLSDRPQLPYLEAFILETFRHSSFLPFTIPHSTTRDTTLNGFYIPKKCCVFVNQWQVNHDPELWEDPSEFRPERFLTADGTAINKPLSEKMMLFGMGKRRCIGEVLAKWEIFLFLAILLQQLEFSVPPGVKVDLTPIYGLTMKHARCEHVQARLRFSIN
Conditions: human liver microsomes ref 17; cited from earlier work. In general terms: Microsomes from liver hold many membrane-bound enzymes, among them those of drug oxidation.

Data set [2] concerns CYP1A. Conditions: rat liver microsomes ref 17; cited from earlier work.

As for `O=c1ccc2ccc3occc3c2o1` [isopsoralen], the type of inhibitor entry in data set [1] was “reversible and time-dependent inhibitor”; in data set [2], “reversible and time-dependent inhibitor”.

As for `O=c1ccc2cc3ccoc3cc2o1` [psoralen], the type of inhibitor entry in data set [1] was “reversible and time-dependent inhibitor”; in data set [2] it was “reversible and time-dependent inhibitor”.
